# Laboratory results from paper PMC4018172 (Analytical Chemistry, 2014).
# System: phosphorylated PKB (Ser473)
# Assay: Western blot of active
# Assay type: cell-based, human
# Conditions: PANC-1, CFPAC-1 and HPAF-II cell lysates (all three cell lines); 1 μM wortmannin for 10 min prior to lysis
compound,measurement,value
COC[C@H]1OC(=O)c2coc3c2[C@@]1(C)C1=C(C3=O)[C@@H]2CCC(=O)[C@@]2(C)C[C@H]1OC(C)=O [wortmannin],amount of phosphorylated Ser473 (pSer473) of PKB by Western blot,decreased
